Literature values, collected in US6709666B2, “Insecticidal mat and heat-transpiration insecticidal method using the same” (Dainihon Jochugiku Co., Ltd., priority 2000, dated 2004).

Settings: at 20° C.

C#CC(OC(=O)C1C(C=C(C)C)C1(C)C)/C(C)=C/CC (stereo not shown) [empenthrin]
vapor pressure: 87 mPa
